According to patent US20220395553A1, “CXCR4 ANTAGONIST PEPTIDES” (COHBAR, INC., priority 2019, published 2022):
Square brackets hold non-standard residues; d marks the D form. Peptide text beside a SMILES is read from it.

What was measured:
human CXCR4 [1] = target: T1, human CXCR4 (Homo sapiens, UniProt P61073); experiment: IC50 for inhibition of CXCR4 activation, β-Arrestin recruitment (Example 22); format: cell-based; design: host or cells: C2C12 (mouse myoblast) CXCR4 β-Arrestin PathHunter cell line
T1 sequence (P61073 whole entry, the tested form may be a part): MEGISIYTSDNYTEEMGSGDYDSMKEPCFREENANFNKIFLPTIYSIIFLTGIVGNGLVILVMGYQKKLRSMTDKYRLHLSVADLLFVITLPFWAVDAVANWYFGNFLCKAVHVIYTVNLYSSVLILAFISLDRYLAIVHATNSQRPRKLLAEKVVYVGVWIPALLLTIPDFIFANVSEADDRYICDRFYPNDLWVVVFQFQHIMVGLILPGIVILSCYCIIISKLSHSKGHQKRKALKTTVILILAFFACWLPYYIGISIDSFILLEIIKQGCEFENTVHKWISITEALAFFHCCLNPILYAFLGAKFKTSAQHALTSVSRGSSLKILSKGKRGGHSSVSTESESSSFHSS
Summary of the method: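 C2C12 cells co-expressing ProLink-tagged human CXCR4 and Enzyme Acceptor-tagged β-arrestin (PathHunter). Peptides tested in 10-point, 3-fold dilutions from 1 μM (1 μM–0.05 nM). Recruitment read by chemiluminescent enzyme-fragment complementation after 90 min incubation.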

human CXCR4 [2] = target: T1, human CXCR4; experiment: IC50 for CXCR4/CXCL12 ligand binding, HTRF format (Example 24); design: host or cells: HEK293 (Tag-lite CXCR4 cells, frozen aliquots, transient expression)
Description: Peptides were initially prepared as 1 mM stock in H2O. […] Following the manufacture's protocol, a frozen aliquot of Tag-lite CXCR4 cells was thawed and immediately seeded onto 384-well plates in TLB. […] The plates were covered in aluminum foil and left at room temperature for 3 hours. Following the 3 hour incubation period, the plates were removed from the incubator and fluorescence measured using a Cytation 1 plate reader using a HTRF filter cube ([…]; BioTek; Winooski, Vt.).

Jurkat cells = experiment: CXCL12 mediated cell migration, Jurkat cells; format: cell-based, human; conditions: 1.1 μM test article, 100 ng/ml CXCL12, 1 hour
Description: The assay was performed following a protocol similar to that described by Peng, et al., Mol Cancer Ther., 14480-90 (2015), incorporated herein by reference. Peptides were initially prepared as 1 mM stock in H2O and tested at a final concentration of 1.1 μM. […] Jurkat cells were resuspended in serum free media (RPMI+GlutaMax; Gibco/Thermo Fisher Scientific; Gaithersburg, Md.) containing 0.5% bovine serum albumin at density of 5×10^6 cells/ml. […] Cells (250,000 cells in 50 μl) supplemented with the appropriate treatments were seeded on to the upper chamber of a 96-well 5 μm HTS Transwell filter insert (Corning/Costar; Tewksbury, Mass.). […] Filter inserts were immediately placed on top of 96-well receiver trays and placed at 37° C. in a humidified atmosphere of 5% CO2/95% air for 1 hour. Following the 1 hour incubation period the filter inserts were carefully removed and the migration of cells across the filter into the bottom chamber (receiver wells) was determined by measuring ATP levels using Cell TiterGlo 2.0, according to manufacturer's instructions (Promega; Madison, Wis.); luminescence was measured using a Cytation 3 plate reader (BioTek; Winooski, Vt.).

[3] = test system: CXCR4/CXCL12 induced p-MEK; experiment: CXCR4/CXCL12 induced p-MEK in Jurkat cells (ELISA); format: cell-based, human; conditions: 5 nM CXCL12, 5 min
Summary of the method: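 Jurkat cells in RPMI+GlutaMax containing 10% FBS and 1% penicillin/streptomycin, fresh or conditioned, were resuspended at 2×10^6 cells/ml and […] aliquots placed in tubes. After a 5 min stimulation they were pelleted, rinsed with HBSS and lysed with PMSF and protease/phosphatase inhibitors. Phospho-MEK1 (Ser217/221) was quantified by sandwich ELISA with absorbance read at 450 nm.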

human CXCR4 [4] = target: T1, human CXCR4; experiment: CXCR4/CXCL12 binding, HTRF format, single concentration (Example 23); design: host or cells: HEK293 (Tag-lite CXCR4 cells, frozen aliquots, transient expression); conditions: 15 nM CXCR4R fluorescent probe, 3 hours, HEK293 Tag-lite CXCR4 cells
Summary of the method: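 Tag-lite CXCR4 cells were exposed to peptide at 400 nM final with 15 nM (EC80) fluorescent CXCR4 probe for 3 h at room temperature. HTRF was read, and the 665/620 nm ratio ×10,000 measured probe bound to terbium-labelled receptor.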

Compound	IC50 (human CXCR4 [1]) [nM]	IC50 (human CXCR4 [2]) [nM]	Percent Inhibition of CXCL12 Mediated Migration (1.1 μM Test Article) (Jurkat cells) [%]	Percent Inhibition of CXCR4/CXCL12 Induced p-MEK (100 nM Test Article) [3] [%]	Percent Inhibition of CXCR4/CXCL12 Induced p-MEK (1 μM Test Article) [3] [%]	Percent Inhibition of CXCR4/CXCL12 Binding (400 nM peptide) (human CXCR4 [4]) [%]
CC(C)C[C@H](NC(=O)[C@H](CO)NC(=O)[C@H](CO)NC(=O)[C@H](CCCNC(=N)N)NC(=O)[C@@H](NC(=O)[C@@H](NC(=O)[C@H](Cc1c[nH]cn1)NC(=O)[C@H](Cc1c[nH]cn1)NC(=O)[C@H](Cc1ccc(O)cc1)NC(=O)[C@H](CCCNC(=N)N)NC(=O)[C@H](CCC(=O)O)NC(=O)[C@@H](N)CC(C)C)[C@@H](C)O)C(C)C)C(=O)N[C@@H](CCCNC(=N)N)C(=O)N1CCC[C@H]1C(=O)N[C@@H](Cc1ccc(O)cc1)C(=O)N[C@H](C(=O)N[C@@H](CCCCN)C(=O)O)[C@@H](C)O [compound 39] (H-LERYHHTVRSSLRPYTK-OH; N-terminus and C-terminus assumed)	3	8	77	38	95	87
CC(C)C[C@H](NC(=O)[C@H](CO)NC(=O)[C@H](CO)NC(=O)[C@H](CCCNC(=N)N)NC(=O)[C@@H](NC(=O)[C@H](CO)NC(=O)[C@H](Cc1c[nH]cn1)NC(=O)[C@H](Cc1c[nH]cn1)NC(=O)[C@H](Cc1ccc(O)cc1)NC(=O)[C@H](CCCNC(=N)N)NC(=O)[C@H](CC(=O)O)NC(=O)[C@@H](N)CC(C)C)C(C)C)C(=O)N[C@@H](CCCNC(=N)N)C(=O)N1CCC[C@H]1C(=O)N[C@@H](Cc1ccc(O)cc1)C(=O)N[C@H](C(=O)N[C@@H](CCCCN)C(=O)O)[C@@H](C)O [compound 7] (H-LDRYHHSVRSSLRPYTK-OH; N-terminus and C-terminus assumed)	–	5	52	60	96	89
CC(C)C[C@H](NC(=O)[C@@H](NC(=O)[C@H](CO)NC(=O)[C@H](CCCNC(=N)N)NC(=O)[C@@H](NC(=O)[C@H](CO)NC(=O)[C@H](Cc1c[nH]cn1)NC(=O)[C@H](Cc1c[nH]cn1)NC(=O)[C@H](Cc1ccc(O)cc1)NC(=O)[C@H](CCCNC(=N)N)NC(=O)[C@H](CCC(=O)O)NC(=O)[C@@H](N)CC(C)C)C(C)C)[C@@H](C)O)C(=O)N[C@@H](CCCNC(=N)N)C(=O)N1CCC[C@H]1C(=O)N[C@@H](Cc1ccc(O)cc1)C(=O)N[C@H](C(=O)N[C@@H](CCCCN)C(=O)O)[C@@H](C)O [compound 74] (H-LERYHHSVRSTLRPYTK-OH; N-terminus and C-terminus assumed)	5	6	61	48	93	88
CC(C)C[C@H](NC(=O)[C@H](CO)NC(=O)[C@H](CO)NC(=O)[C@H](CCCNC(=N)N)NC(=O)[C@@H](NC(=O)[C@H](CO)NC(=O)[C@H](Cc1c[nH]cn1)NC(=O)[C@H](Cc1c[nH]cn1)NC(=O)[C@H](Cc1ccccc1)NC(=O)[C@H](CCCNC(=N)N)NC(=O)[C@H](CCCNC(=N)N)NC(=O)[C@@H](N)CC(C)C)C(C)C)C(=O)N[C@@H](CCCNC(=N)N)C(=O)N1CCC[C@H]1C(=O)N[C@@H](Cc1ccc(O)cc1)C(=O)N[C@H](C(=O)N[C@@H](CCCCN)C(=O)O)[C@@H](C)O [compound 53] (H-LRRFHHSVRSSLRPYTK-OH; N-terminus and C-terminus assumed)	3	–	59	62	98	5
CC(C)C[C@H](NC(=O)[C@H](CO)NC(=O)[C@H](CO)NC(=O)[C@H](CCCNC(=N)N)NC(=O)[C@@H](NC(=O)[C@@H](NC(=O)[C@H](Cc1c[nH]cn1)NC(=O)[C@H](Cc1c[nH]cn1)NC(=O)[C@H](Cc1ccc(O)cc1)NC(=O)[C@H](CCCNC(=N)N)NC(=O)[C@H](CCCNC(=N)N)NC(=O)[C@@H](N)CC(C)C)[C@@H](C)O)C(C)C)C(=O)N[C@@H](CCCNC(=N)N)C(=O)N1CCC[C@H]1C(=O)N[C@@H](Cc1ccc(O)cc1)C(=O)N[C@H](C(=O)N[C@@H](CCCCN)C(=O)O)[C@@H](C)O [compound 38] (H-LRRYHHTVRSSLRPYTK-OH; N-terminus and C-terminus assumed)	3	175	–	51	96	12
CC(C)C[C@H](NC(=O)[C@H](CO)NC(=O)[C@@H](NC(=O)[C@H](CCCNC(=N)N)NC(=O)[C@@H](NC(=O)[C@H](CO)NC(=O)[C@H](Cc1c[nH]cn1)NC(=O)[C@H](Cc1c[nH]cn1)NC(=O)[C@H](Cc1ccc(O)cc1)NC(=O)[C@H](CCCNC(=N)N)NC(=O)[C@H](CCC(=O)O)NC(=O)[C@@H](N)CC(C)C)C(C)C)[C@@H](C)O)C(=O)N[C@@H](CCCNC(=N)N)C(=O)N1CCC[C@H]1C(=O)N[C@@H](Cc1ccc(O)cc1)C(=O)N[C@H](C(=O)N[C@@H](CCCCN)C(=O)O)[C@@H](C)O [compound 73] (H-LERYHHSVRTSLRPYTK-OH; N-terminus and C-terminus assumed)	4	–	82	47	96	87
CC(C)C[C@H](NC(=O)[C@H](CO)NC(=O)[C@H](CO)NC(=O)[C@H](CCCNC(=N)N)NC(=O)[C@@H](C)NC(=O)[C@H](CO)NC(=O)[C@H](Cc1c[nH]cn1)NC(=O)[C@H](Cc1c[nH]cn1)NC(=O)[C@H](Cc1ccc(O)cc1)NC(=O)[C@H](CCCNC(=N)N)NC(=O)[C@H](CC(=O)O)NC(=O)[C@@H](N)CC(C)C)C(=O)N[C@@H](CCCNC(=N)N)C(=O)N1CCC[C@H]1C(=O)N[C@@H](Cc1ccc(O)cc1)C(=O)N[C@H](C(=O)N[C@@H](CCCCN)C(=O)O)[C@@H](C)O [compound 8] (H-LDRYHHS[dA]RSSLRPYTK-OH; N-terminus and C-terminus assumed)	3	–	94	32	88	86
